Data reported in patent publication US20050163876A1, “Cancer treatment using natural plant products or essential oils or components from some pistacia species” (DATA MEDICA PADOVA S.p.A., priority 2003, published 2005).

Key:
[1] = tested on: LoVo cells; assay: Pearson correlation between oil components and cytotoxic activity; parameters: species or system human; conditions: P. lentiscus oils / LoVo cells
Description: The Pearson correlation and linear regression analyzes between the oil components and biological activity was also determined. To the scope all data were collected in a data base and analysed by the GraphPad Prism Version 3.0 statistical software to identify substances directly responsible of biological activity.

[2] = tested on: transplanted hamster pancreatic tumors; conditions: cited from earlier work

SMILES	Pearson correlation r between oil component and cytotoxic activity [1]	growth of transplanted tumors relative to controls [2]
Cc1ccc(C(C)C)cc1 [Para cymene, Para Cymene]	−0.8621	–
C=C1CC[C@H]2O[C@]2(C)CC[C@@H]2[C@@H]1CC2(C)C [Caryophyllene Oxide]	0.8355	–
C=C(C)[C@@H]1CC=C(CO)CC1 [perillyl alcohol]	–	less than half that of controls
CC(=O)OC1CC2CCC1(C)C2(C)C (stereo not shown) [Bornyl Acetate]	0.8693	–
